# Data from the SangsterLogP compilation.
# Experiment: method code SF-AS, from DOI: 10.1021/jm00146a003, PMID: 4020837
# Conditions: pH 7.4
row,logD,Compound
1,-1.4,O=C(Cn1cnc([N+](=O)[O-])c1I)NCc1ccc[n+]([O-])c1
2,0.57,CCOC(=O)Cn1cnc([N+](=O)[O-])c1I
3,0.89,COCC(O)Cn1cnc(I)c1[N+](=O)[O-] (centres undefined)
4,0.93,CCOC(=O)Cn1cnc(I)c1[N+](=O)[O-]
5,0.41,COCC(O)Cn1cnc([N+](=O)[O-])c1I (centres undefined)
6,1.29,Cn1cnc(I)c1[N+](=O)[O-]
7,1,Cn1cnc([N+](=O)[O-])c1I
8,0.46,O=C(Cn1cnc([N+](=O)[O-])c1I)Nc1cccnc1

row,Compound,logD
1,O=[N+]([O-])c1nc[nH]c1I,0.28
